Data set [1] is described as follows: Cytotoxicity against human peripheral blood mononuclear cells assessed as reduction in cell survival at 10 uM incubated for 48 hrs by MTT assay. It is filed as cell-based. To be noted: pbmc. A general note: Tetrazolium dyes change colour on reduction, which living cells bring about.
Data set [2] has as its system MDA-MB-231. Description: Antiproliferative activity against human MDA-MB-231 cells assessed as reduction in cell viability incubated for 48 hrs by MTT assay. It is filed as functional, cell-based. To be noted: MDA-MB-231, 48 h.
For data set [3], the system named is A549. The data set can be described thus: Antiproliferative activity against human A549 cells assessed as reduction in cell viability incubated for 48 hrs by MTT assay. To be noted: A549, 48 h. It is filed as functional, cell-based.
The subject of data set [4] is HT-29. Description: Antiproliferative activity against human HT-29 cells assessed as reduction in cell viability incubated for 48 hrs by MTT assay. It is filed as functional, cell-based. To be noted: HT-29, 48 h.
The test system of data set [5] is MCF7. Description: Antiproliferative activity against human MCF-7 cells assessed as reduction in cell viability incubated for 48 hrs by MTT assay. It is filed as functional, cell-based. To be noted: MCF7, 48 h.
In data set [6] the test system is HBL-100. Description: Cytotoxicity against human HBL-100 cells assessed as disruption of cell morphology at 10 uM. To be noted: hbl-100, 10 µM. It is filed as cell-based.
Data set [7] deals with T47D. Description: Antiproliferative activity against human T47D cells assessed as reduction in cell viability incubated for 48 hrs by MTT assay. It is filed as functional, cell-based.
Data set [8] has as its system HBL-100. Description: Cytotoxicity against human HBL-100 cells assessed as reduction in cell survival at 10 uM incubated for 48 hrs by MTT assay. It is filed as cell-based. To be noted: hbl-100, 48 h.
Data set [9] concerns the target Epidermal growth factor receptor (Homo sapiens, UniProt P00533). Description: Inhibition of EGFR (unknown origin) using Tyrosine 4 peptide and ATP as substrate incubated for 1 hr by Z'-lyte kinase assay based […] method.
In data set [10] the test system is MDA-MB-231. The data set can be described thus: Induction of mitochondrial membrane potential depolarization in human MDA-MB-231 cells assessed as […] fluorescence to green fluorescence ratio at sub-IC50 concentration incubated for 48 hrs by JC1 staining based flow cytometry. It is filed as functional, cell-based. In general terms: In flow cytometry, cells or beads pass a laser one at a time.

Data set [11] deals with MDA-MB-231. Description: Induction of reactive oxygen species generation in human MDA-MB-231 cells assessed as increase in intracellular ROS level at sub-IC50 concentration incubated for 48 hrs by H2DCFDA staining based flow cytometry. It is filed as functional, cell-based.

SMILES strings stand for the structures. pIC50: −log10 of the molar value. Activity calls are given as the source filed them. The calls are words filed in the database; no cut-off is given here.

Epidermal growth factor receptor, sequence (P00533 whole entry): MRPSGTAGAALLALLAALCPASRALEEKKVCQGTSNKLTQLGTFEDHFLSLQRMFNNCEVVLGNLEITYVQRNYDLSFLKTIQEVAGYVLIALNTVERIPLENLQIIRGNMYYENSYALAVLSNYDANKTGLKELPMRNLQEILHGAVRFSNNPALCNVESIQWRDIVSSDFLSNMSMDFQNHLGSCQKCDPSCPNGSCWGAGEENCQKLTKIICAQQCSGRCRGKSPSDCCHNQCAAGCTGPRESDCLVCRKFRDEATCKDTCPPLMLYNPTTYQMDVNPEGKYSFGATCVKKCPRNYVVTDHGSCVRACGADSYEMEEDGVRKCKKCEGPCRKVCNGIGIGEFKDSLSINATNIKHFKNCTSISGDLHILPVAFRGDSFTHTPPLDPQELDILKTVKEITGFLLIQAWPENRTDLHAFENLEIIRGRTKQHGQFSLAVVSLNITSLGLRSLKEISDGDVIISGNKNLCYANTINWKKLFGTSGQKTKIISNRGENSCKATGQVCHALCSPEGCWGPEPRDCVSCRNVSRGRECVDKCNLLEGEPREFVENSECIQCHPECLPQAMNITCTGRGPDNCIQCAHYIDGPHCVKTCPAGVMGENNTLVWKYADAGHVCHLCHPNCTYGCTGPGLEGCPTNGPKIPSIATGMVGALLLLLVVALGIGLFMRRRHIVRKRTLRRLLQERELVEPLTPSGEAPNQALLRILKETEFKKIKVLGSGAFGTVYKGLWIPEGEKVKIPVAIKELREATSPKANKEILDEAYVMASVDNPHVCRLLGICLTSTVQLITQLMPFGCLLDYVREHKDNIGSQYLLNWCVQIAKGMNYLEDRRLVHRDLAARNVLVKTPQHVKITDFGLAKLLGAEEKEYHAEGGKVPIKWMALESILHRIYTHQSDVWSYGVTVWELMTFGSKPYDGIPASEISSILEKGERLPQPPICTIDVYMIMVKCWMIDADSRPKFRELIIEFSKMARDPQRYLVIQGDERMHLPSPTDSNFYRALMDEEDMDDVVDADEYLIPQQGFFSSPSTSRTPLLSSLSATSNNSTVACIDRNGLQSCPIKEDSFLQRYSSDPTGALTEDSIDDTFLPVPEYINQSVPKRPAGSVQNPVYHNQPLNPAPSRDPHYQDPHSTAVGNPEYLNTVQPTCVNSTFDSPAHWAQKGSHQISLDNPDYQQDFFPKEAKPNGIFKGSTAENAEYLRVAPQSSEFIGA

The term pIC50 denotes the IC50 on a negative log10 scale, so that one unit is a factor of ten. Consider `COc1ccc(/C=N/c2c(C#N)ncn2Cc2ccc(F)cc2)cc1O`, for which the Activity entry in data set [1] is “Non-Toxic”; in data set [6], “Toxic”. The pIC50 in data set [2] is 5.57; in data set [3], 5.88; in data set [4] it was 5.21; in data set [5] it was 5.34; in [7], 5.21.
In the case of `COc1ccc(C2N=C(C(N)=O)c3ncn(-c4ccc(F)cc4)c3N2)cc1OC` (centres undefined), the Activity entry in data set [1], in [8] and in [6] was “Non-Toxic” throughout. Besides, the pIC50 in data set [2] was 5.17; in [3], 5.64; in data set [4], 5.48; in data set [5], 5.24; in data set [7], 5.00; in data set [9], 6.21.
As for `COc1ccc(/C=N/c2c(C#N)ncn2-c2ccc(F)cc2)cc1O`, the pIC50 is 4.67 in data set [2]; below 4.60 in [3]; 4.70 in [4]; 5.11 in data set [5]; 4.70 in data set [7].
For the compound `COc1ccc(/C=N/c2c(C#N)ncn2Cc2ccc(F)cc2)cc1`, the results for the Activity result in [1] and in data set [6] were “Non-Toxic” and “Toxic”, respectively. For the same compound, the pIC50 is 5.54 in data set [2]; 5.34 in [3]; 5.04 in data set [4]; 5.41 in data set [5]; 5.04 in [7].
On to `COc1ccc(/C=N/c2c(C#N)ncn2Cc2ccc(F)cc2)c(OC)c1OC`, for which the pIC50 was below 4.60 in data set [2]; 4.61 in data set [3]; below 4.60 in [4]; 4.90 in data set [5]; below 4.60 in [7].
In the case of `N#Cc1ncn(Cc2ccc(F)cc2)c1/N=C/c1ccc([N+](=O)[O-])cc1`, in data set [1], the Activity result is “Toxic”. Further, the pIC50 in [2] was 5.46; in [3] it was 5.69; in data set [4], 5.24; in data set [5], 4.97; in data set [7], 5.24.
With `COc1ccc(/C=N/c2c(C#N)ncn2-c2ccc(F)cc2)cc1OC`, the Activity result in data set [1] is “Toxic”. In addition, the pIC50 is 5.37 in data set [2]; 5.53 in data set [3]; 5.14 in data set [4]; 4.83 in data set [5]; 5.14 in [7].
On to `COc1ccc(C2N=C(C(N)=O)c3ncn(-c4ccc(N5CCN(C)CC5)c([N+](=O)[O-])c4)c3N2)cc1OC` (centres undefined), for which the outcome in data set [10] and in [11] was Active.
For `COc1cc(/C=N/c2c(C#N)ncn2-c2ccc(F)cc2)ccc1O`, the pIC50 in [2] is 4.87; in data set [3] it was 4.87; in data set [4], 4.70; in data set [5] it was 5.00; in [7], 4.70.
Turning to `COc1cc(/C=N/c2c(C#N)ncn2Cc2ccc(F)cc2)ccc1O`, the pIC50 in data set [2] is 4.79; in [3] it was 4.96; in [4] it was 4.67; in data set [5] it was 4.95; in data set [7], 4.67.
On to `COc1ccc(OC)c(/C=N/c2c(C#N)ncn2-c2ccc(F)cc2)c1`, for which the pIC50 is 4.91 in data set [2]; 5.03 in data set [3]; 4.79 in data set [4]; 5.15 in data set [5]; 4.79 in data set [7].
Take `COc1ccc(/C=N/c2c(C#N)ncn2Cc2ccc(F)cc2)cc1OC`: the pIC50 in data set [2] is 4.98; in data set [3], 5.04; in [4], 4.86; in data set [5], 4.96; in data set [7], 5.09.
Taken in the same sequence, the figures for `COc1ccc(/C=N/c2c(C#N)ncn2-c2ccc(F)cc2)cc1` were 4.77, 4.77, 4.71, 5.03 and 4.71.
Regarding `COc1cc(C2N=C(C(N)=O)c3ncn(-c4ccc(F)cc4)c3N2)cc(OC)c1OC` (centres undefined), the Activity result in [1] is “Toxic”. In addition, the pIC50 in data set [2] was 5.06; in data set [3], 5.64; in data set [4] it was 5.63; in data set [5], 5.13; in data set [7], 4.97.
`N#Cc1ncn(-c2ccc(F)cc2)c1/N=C/c1ccc([N+](=O)[O-])cc1`: the pIC50 in data set [2] was 4.87; in [3] it was 4.74; in data set [4], 4.80; in data set [5], 5.04; in [7] it was 4.80.
`N#Cc1ncn(-c2ccc(F)cc2)c1/N=C/c1cc([N+](=O)[O-])ccc1O`: the pIC50 was 4.77 in data set [2]; 4.77 in data set [3]; 4.82 in data set [4]; 5.00 in data set [5]; 4.82 in [7].
In the case of `COc1cc(/C=N/c2c(C#N)ncn2Cc2ccc(F)cc2)cc(OC)c1OC`, in data set [1], the Activity result is reported as “Toxic”. Moreover, the pIC50 was 5.54 in data set [2]; 5.01 in [3]; 4.78 in [4]; 5.04 in data set [5]; 4.76 in data set [7].
Regarding `COc1ccc(OC)c(/C=N/c2c(C#N)ncn2Cc2ccc(F)cc2)c1`, the pIC50 in data set [2] was 4.75; in data set [3] it was 4.88; in data set [4] it was 4.65; in data set [5], 4.96; in [7], 4.65.
Turning to `COc1cc(/C=N/c2c(C#N)ncn2-c2ccc(F)cc2)cc(OC)c1OC`, the pIC50 in data set [2] was 4.73; in data set [3], 5.01; in [4], 4.86; in data set [5], 5.08; in data set [7], 4.86.
In the case of `N#Cc1ncn(-c2ccc(F)cc2)c1/N=C/c1ccc(O)cc1`, the pIC50 in [2] was 4.79; in [3] it was 4.79; in data set [4], 4.69; in data set [5], 4.94; in data set [7], 4.69.
`CC(C)c1ccc(/C=N/c2c(C#N)ncn2-c2ccc(F)cc2)cc1`: the pIC50 is 4.69 in data set [2]; 4.83 in data set [3]; below 4.60 in [4]; 5.01 in data set [5]; below 4.60 in data set [7].

Values taken from ChEMBL document CHEMBL4699428, “Anticancer potential of some imidazole and fused imidazole derivatives: exploring the mechanism via epidermal growth factor receptor (EGFR) inhibition” (RSC Med Chem, 2020).
